#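 These data come from cells grown in 96-well plates and exposed to compound for 48 hours at five concentrations. At the GI50, growth is halved.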 Active and inactive are the calls of the source. Cut-off read from the data, not from the text of the source: active = GI50 up to about 1.1 µM and inactive = higher.
# Experiments:
# Assay in all cases: growth of human tumour cells (NCI), 48 h
# ACHN = system: ACHN
# SK-MEL-5 = system: SK-MEL-5
# EKVX = system: EKVX
# CCRF-CEM = system: CCRF-CEM
# SN12C = system: SN12C
# NCI-H522 = system: NCI-H522
# HL-60 = system: HL-60
# M14 = system: M14
# SNB-75 = system: SNB-75
# COLO 205 = system: COLO 205
# K562 = system: K562
# TK-10 = system: TK-10
# SK-MEL-2 = system: SK-MEL-2
# Malme-3M = system: Malme-3M
# SW-620 = system: SW-620
# OVCAR-5 = system: OVCAR-5
# HOP-92 = system: HOP-92
SMILES,GI50 (ACHN),GI50 (SK-MEL-5),GI50 (EKVX),GI50 (CCRF-CEM),GI50 (SN12C),GI50 (NCI-H522),GI50 (HL-60),GI50 (M14),GI50 (SNB-75),GI50 (COLO 205),GI50 (K562),GI50 (TK-10),GI50 (SK-MEL-2),GI50 (Malme-3M),GI50 (SW-620),GI50 (OVCAR-5),GI50 (HOP-92)
Cc1ccc2c(c1)C1(C)OC(CC(N)C1O)O2 (centres undefined),> 100 µM (inactive),> 100 µM (inactive),> 100 µM (inactive),> 100 µM (inactive),> 100 µM (inactive),> 100 µM (inactive),> 100 µM (inactive),> 100 µM (inactive),29.8 µM (inactive),> 100 µM (inactive),> 100 µM (inactive),> 100 µM (inactive),> 100 µM (inactive),> 100 µM (inactive),> 100 µM (inactive),–,–
Cc1cccc(C(C)(C)C)c1NC(=O)CC1Sc2ccccc2NC1=O (centres undefined),57.5 µM (inactive),> 100 µM (inactive),> 100 µM (inactive),55.7 µM (inactive),> 100 µM (inactive),> 100 µM (inactive),46.1 µM (inactive),> 100 µM (inactive),> 100 µM (inactive),24 µM (inactive),33 µM (inactive),41.7 µM (inactive),–,> 100 µM (inactive),17.3 µM (inactive),> 100 µM (inactive),3.8 µM (inactive)
CC(=O)NC(CCCN(Cc1ccccc1)C(=O)N(C)N=O)C(=O)NCc1ccccc1 (centres undefined),> 100 µM (inactive),> 100 µM (inactive),> 100 µM (inactive),> 100 µM (inactive),> 100 µM (inactive),37.1 µM (inactive),–,> 100 µM (inactive),27.4 µM (inactive),> 100 µM (inactive),> 100 µM (inactive),> 100 µM (inactive),> 100 µM (inactive),> 100 µM (inactive),> 100 µM (inactive),> 100 µM (inactive),> 100 µM (inactive)
Nc1ccc(C(=O)N/C(=C\C=C\c2ccco2)c2nc3c(O)nc(S)nc3[nH]2)cc1,> 100 µM (inactive),> 100 µM (inactive),> 100 µM (inactive),> 100 µM (inactive),> 100 µM (inactive),> 100 µM (inactive),–,> 100 µM (inactive),–,> 100 µM (inactive),> 100 µM (inactive),> 100 µM (inactive),> 100 µM (inactive),> 100 µM (inactive),> 100 µM (inactive),> 100 µM (inactive),> 100 µM (inactive)
COc1ccc(C(=O)O)c(Br)c1OCc1ccccc1,> 100 µM (inactive),> 100 µM (inactive),> 100 µM (inactive),> 100 µM (inactive),92.5 µM (inactive),> 100 µM (inactive),> 100 µM (inactive),> 100 µM (inactive),> 100 µM (inactive),> 100 µM (inactive),> 100 µM (inactive),> 100 µM (inactive),> 100 µM (inactive),–,> 100 µM (inactive),> 100 µM (inactive),> 100 µM (inactive)
O/N=C(\C(=N/O)Nc1ccc(-c2ccc(NC(=N/O)/C(=N\O)c3ccccc3)cc2)cc1)c1ccccc1,30.6 µM (inactive),20.3 µM (inactive),20.4 µM (inactive),18.8 µM (inactive),32.8 µM (inactive),17.8 µM (inactive),27.9 µM (inactive),17.9 µM (inactive),–,16.7 µM (inactive),18 µM (inactive),36.8 µM (inactive),20.2 µM (inactive),19.4 µM (inactive),22.2 µM (inactive),13.5 µM (inactive),20 µM (inactive)
Cc1ccc(C[P+]2(c3ccccc3)CCCCC2)cc1.[O-][Cl+3]([O-])([O-])[O-],81.7 µM (inactive),10.6 µM (inactive),43.9 µM (inactive),38 µM (inactive),37.6 µM (inactive),16.1 µM (inactive),10.8 µM (inactive),25.8 µM (inactive),24.4 µM (inactive),14 µM (inactive),34.8 µM (inactive),51.2 µM (inactive),30.9 µM (inactive),25.5 µM (inactive),33.3 µM (inactive),55.2 µM (inactive),–
CCC(CO)Nc1nc2c(c(=O)n(C)c(=O)n2C)n1CCO (centres undefined),> 100 µM (inactive),> 100 µM (inactive),> 100 µM (inactive),–,> 100 µM (inactive),–,–,–,48.9 µM (inactive),> 100 µM (inactive),> 100 µM (inactive),> 100 µM (inactive),> 100 µM (inactive),> 100 µM (inactive),> 100 µM (inactive),> 100 µM (inactive),> 100 µM (inactive)
CC1=CC(/C=C(\C)CCCc2ccoc2)C2(OC(=O)C(C)=C2O)[C@H]2C1CC[C@@H]2C (some centres undefined),19.8 µM (inactive),20.3 µM (inactive),31.7 µM (inactive),22.1 µM (inactive),20.5 µM (inactive),13.9 µM (inactive),–,23.1 µM (inactive),33.7 µM (inactive),21.9 µM (inactive),24.7 µM (inactive),29.2 µM (inactive),–,26.6 µM (inactive),33.6 µM (inactive),–,17.9 µM (inactive)
CC#C[C@@]1(O)CCCCC1O (some centres undefined),> 100 µM (inactive),> 100 µM (inactive),> 100 µM (inactive),> 100 µM (inactive),> 100 µM (inactive),> 100 µM (inactive),> 100 µM (inactive),> 100 µM (inactive),66.8 µM (inactive),> 100 µM (inactive),> 100 µM (inactive),> 100 µM (inactive),> 100 µM (inactive),> 100 µM (inactive),> 100 µM (inactive),–,> 100 µM (inactive)
CCc1cccc(C)c1NC(=O)CCc1nnc2s/c(=C\c3cccc4ccccc34)c(=O)n12,> 100 µM (inactive),> 100 µM (inactive),–,92.9 µM (inactive),> 100 µM (inactive),> 100 µM (inactive),44.6 µM (inactive),45.6 µM (inactive),> 100 µM (inactive),> 100 µM (inactive),30.3 µM (inactive),> 100 µM (inactive),> 100 µM (inactive),> 100 µM (inactive),> 100 µM (inactive),> 100 µM (inactive),> 100 µM (inactive)
CCN(CC)CC(C)C(=O)/C=C/c1ccc(C)cc1 (centres undefined),2.06 µM (inactive),5.02 µM (inactive),13.8 µM (inactive),3.05 µM (inactive),1.63 µM (inactive),–,3.48 µM (inactive),2.2 µM (inactive),1.66 µM (inactive),1.55 µM (inactive),3.24 µM (inactive),2.03 µM (inactive),–,2.81 µM (inactive),1.57 µM (inactive),14.8 µM (inactive),2.32 µM (inactive)
COC(=O)C(C#CCCCCC#CC(NC(=O)OCc1ccccc1)(C(=O)OC)C(F)(F)F)(NC(=O)OCc1ccccc1)C(F)(F)F (centres undefined),> 100 µM (inactive),> 100 µM (inactive),> 100 µM (inactive),> 100 µM (inactive),> 100 µM (inactive),> 100 µM (inactive),> 100 µM (inactive),> 100 µM (inactive),> 100 µM (inactive),> 100 µM (inactive),8.38 µM (inactive),> 100 µM (inactive),–,> 100 µM (inactive),> 100 µM (inactive),> 100 µM (inactive),> 100 µM (inactive)
NC(=O)C1C(=O)Oc2cccnc21 (centres undefined),> 100 µM (inactive),> 100 µM (inactive),> 100 µM (inactive),> 100 µM (inactive),> 100 µM (inactive),> 100 µM (inactive),–,> 100 µM (inactive),17.8 µM (inactive),> 100 µM (inactive),> 100 µM (inactive),> 100 µM (inactive),–,> 100 µM (inactive),83 µM (inactive),–,–
COc1ccc2ccc([Se]c3ccc4ccc(OC)cc4c3)cc2c1,29.2 µM (inactive),> 100 µM (inactive),–,49.8 µM (inactive),90.6 µM (inactive),84.5 µM (inactive),> 100 µM (inactive),> 100 µM (inactive),26.6 µM (inactive),> 100 µM (inactive),> 100 µM (inactive),> 100 µM (inactive),> 100 µM (inactive),> 100 µM (inactive),> 100 µM (inactive),–,> 100 µM (inactive)
O=C1COc2cc3c(cc2N1)SCCC(=O)N3,–,> 100 µM (inactive),> 100 µM (inactive),> 100 µM (inactive),> 100 µM (inactive),> 100 µM (inactive),> 100 µM (inactive),> 100 µM (inactive),> 100 µM (inactive),> 100 µM (inactive),> 100 µM (inactive),> 100 µM (inactive),> 100 µM (inactive),> 100 µM (inactive),> 100 µM (inactive),–,> 100 µM (inactive)
CC(=O)Oc1c2c(c(O)c3ccccc13)C(n1cnc3c(ncn3C3OC(CO)C4OC(C)(C)OC43)c1=N)CCC2 (centres undefined),16.5 µM (inactive),12.1 µM (inactive),22.2 µM (inactive),5.24 µM (inactive),18.1 µM (inactive),5.87 µM (inactive),4.49 µM (inactive),–,17.5 µM (inactive),16.9 µM (inactive),6.84 µM (inactive),21.5 µM (inactive),15.4 µM (inactive),11.2 µM (inactive),15.3 µM (inactive),21.2 µM (inactive),22.6 µM (inactive)
COC1CC(OS(=O)(=O)c2ccc(C)cc2)C(OS(=O)(=O)c2ccc(C)cc2)C(COS(=O)(=O)c2ccc(C)cc2)O1 (centres undefined),2.9 µM (inactive),4.85 µM (inactive),11.2 µM (inactive),74.3 µM (inactive),3.96 µM (inactive),3.8 µM (inactive),30.1 µM (inactive),5.22 µM (inactive),0.535 µM (active),37.9 µM (inactive),23.9 µM (inactive),–,6.85 µM (inactive),2.39 µM (inactive),15.6 µM (inactive),11.3 µM (inactive),–

# — ChEMBL document CHEMBL1201862, “PubChem BioAssay data set” (2004)
